Earlier results in paper PMC13050480, “Preclinical Development of GT-14, a Novel Inhibitor of Gαi2 Protein: Comprehensive Evaluation of Physicochemical, Metabolic Characteristics and Tissue Distribution” (The AAPS journal, 2025).

How the values were obtained:
α1-acid glycoprotein = test system: α1-acid glycoprotein; design: method as in PMID 27106175; details: cited from earlier work
[1] = cited from earlier work
albumin = test system: albumin; design: method as in PMID 27106175; details: cited from earlier work

SMILES: C[C@]12CC[C@H](O)CC1=CC[C@@H]1[C@@H]2CC[C@]2(C)C(c3cccnc3)=CC[C@@H]12 [Abiraterone]
- protein-bound to α1-acid glycoprotein (α1-acid glycoprotein): 89.4–95.6%
- volume of distribution (Vd) [1]: ~ 5630 L
- protein-bound to albumin (albumin): 95.6–99.9%

SMILES: CC(O)(CS(=O)(=O)c1ccc(F)cc1)C(=O)Nc1ccc(C#N)c(C(F)(F)F)c1 (stereo not shown) [Bicalutamide]
- half-life [1]: 25 to 30 h
- oral bioavailability [1]: high oral bioavailability
- tissue distribution of [3H]-Bicalutamide [1]: preferential accumulation in the prostate, pituitary gland, and seminal vesicles, with limited brain penetration

SMILES: CNC(=O)c1ccc(N2C(=S)N(c3ccc(C#N)c(C(F)(F)F)c3)C(=O)C2(C)C)cc1F [Enzalutamide]
- apparent oral volume of distribution (Vd/F) [1]: around 110 L
